Experimental data: ChEMBL document CHEMBL1201862, “PubChem BioAssay data set” (2004)
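Following 48 hours of exposure in 96-well plates, responses at five concentrations were used to interpolate endpoints linearly. At the GI50, growth is halved.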 Activity calls are given as the source filed them. No stated cut-off is given here; in the data, active = GI50 up to about 1.1 µM and inactive = higher.

Experiments:
Assay in all cases: NCI tumour cell line growth inhibition, 48 h
RPMI-8226 = system: RPMI-8226
SK-OV-3 = system: SK-OV-3
MOLT-4 = system: MOLT-4
SF-539 = system: SF-539
SN12C = system: SN12C
KM12 = system: KM12
SK-MEL-2 = system: SK-MEL-2
SF-295 = system: SF-295
786-0 = system: 786-0
HOP-62 = system: HOP-62
KM-20L2 = system: KM-20L2
OVCAR-5 = system: OVCAR-5
HT-29 = system: HT-29
U-251 = system: U-251
HCT-15 = system: HCT-15
CCRF-CEM = system: CCRF-CEM
RXF 393 = system: RXF 393
DU-145 = system: DU-145
NCI/ADR-RES = system: NCI/ADR-RES
BT-549 = system: BT-549

SMILES	GI50 (RPMI-8226)	GI50 (SK-OV-3)	GI50 (MOLT-4)	GI50 (SF-539)	GI50 (SN12C)	GI50 (KM12)	GI50 (SK-MEL-2)	GI50 (SF-295)	GI50 (786-0)	GI50 (HOP-62)	GI50 (KM-20L2)	GI50 (OVCAR-5)	GI50 (HT-29)	GI50 (U-251)	GI50 (HCT-15) [µM]	GI50 (CCRF-CEM)	GI50 (RXF 393)	GI50 (DU-145)	GI50 (NCI/ADR-RES)	GI50 (BT-549)
Cc1cccc(C)c1N1C(=O)C(=O)C(c2nc3ccccc3s2)/C(=N\N)C1=O (stereo not drawn)	39.9 µM (inactive)	> 100 µM (inactive)	30.3 µM (inactive)	> 100 µM (inactive)	78.7 µM (inactive)	52 µM (inactive)	> 100 µM (inactive)	> 100 µM (inactive)	> 100 µM (inactive)	> 100 µM (inactive)	> 100 µM (inactive)	> 100 µM (inactive)	> 100 µM (inactive)	> 100 µM (inactive)	> 100					
CN(C)CCC[N+]1=Nc2cccc3cccc(c23)N1	22.8 µM (inactive)	> 100 µM (inactive)	24.4 µM (inactive)	99.5 µM (inactive)	85.1 µM (inactive)	> 100 µM (inactive)	> 100 µM (inactive)	> 100 µM (inactive)	49.8 µM (inactive)	> 100 µM (inactive)	23.7 µM (inactive)	> 100 µM (inactive)	33.6 µM (inactive)	60 µM (inactive)	39.3	29.9 µM (inactive)				
CCOC(=O)C1N(S(=O)(=O)c2ccc(C)cc2)CCC12c1ccccc1NC2c1ccc(OC)c(OC)c1 (stereo not drawn)	13.9 µM (inactive)	> 100 µM (inactive)		> 100 µM (inactive)	> 100 µM (inactive)	> 100 µM (inactive)		> 100 µM (inactive)	> 100 µM (inactive)	> 100 µM (inactive)	> 100 µM (inactive)	> 100 µM (inactive)	> 100 µM (inactive)	> 100 µM (inactive)	> 100	80.5 µM (inactive)	> 100 µM (inactive)			
CCCC(=O)C(CC)/C(CCC(=O)N(Cc1ccccc1)Cc1ccccc1)=N/NC(=O)C[N+](C)(C)C (stereo not drawn)		> 100 µM (inactive)	> 100 µM (inactive)	> 100 µM (inactive)	> 100 µM (inactive)	> 100 µM (inactive)	> 100 µM (inactive)	> 100 µM (inactive)	> 100 µM (inactive)	> 100 µM (inactive)	> 100 µM (inactive)	> 100 µM (inactive)	> 100 µM (inactive)	> 100 µM (inactive)		> 100 µM (inactive)	> 100 µM (inactive)			
CC(C)=CC(=O)CC(=O)C(=O)NCCNC(=O)C(=O)CC(=O)C=C(C)C	> 50 µM (inactive)	> 50 µM (inactive)		> 50 µM (inactive)	> 50 µM (inactive)	> 50 µM (inactive)	> 50 µM (inactive)	> 50 µM (inactive)	> 50 µM (inactive)	> 50 µM (inactive)	> 50 µM (inactive)	> 50 µM (inactive)	> 50 µM (inactive)	> 50 µM (inactive)	> 50		> 50 µM (inactive)			
CC#COP(=O)(OCC)OCC	85.1 µM (inactive)	> 100 µM (inactive)	> 100 µM (inactive)	> 100 µM (inactive)	> 100 µM (inactive)	> 100 µM (inactive)	> 100 µM (inactive)	> 100 µM (inactive)	> 100 µM (inactive)	> 100 µM (inactive)	> 100 µM (inactive)	> 100 µM (inactive)	> 100 µM (inactive)	> 100 µM (inactive)	> 100	75 µM (inactive)				
COC(=O)c1nn(-c2ccccc2)c(=O)cc1N=[N+]=[N-]	> 100 µM (inactive)	> 100 µM (inactive)	> 100 µM (inactive)	> 100 µM (inactive)	> 100 µM (inactive)	> 100 µM (inactive)		> 100 µM (inactive)	> 100 µM (inactive)	> 100 µM (inactive)	> 100 µM (inactive)	> 100 µM (inactive)	> 100 µM (inactive)	> 100 µM (inactive)	> 100	> 100 µM (inactive)	> 100 µM (inactive)			
Cc1ccccc1Cn1nc2ccccc2cc1=O	> 100 µM (inactive)	> 100 µM (inactive)		> 100 µM (inactive)	> 100 µM (inactive)	> 100 µM (inactive)	> 100 µM (inactive)	> 100 µM (inactive)	> 100 µM (inactive)	> 100 µM (inactive)	> 100 µM (inactive)	> 100 µM (inactive)	> 100 µM (inactive)	> 100 µM (inactive)	> 100	> 100 µM (inactive)				
Fc1cccc2c1cc1ccc3cccc4ccc2c1c34		> 100 µM (inactive)	> 100 µM (inactive)	> 100 µM (inactive)	> 100 µM (inactive)	> 100 µM (inactive)	> 100 µM (inactive)	> 100 µM (inactive)	> 100 µM (inactive)	> 100 µM (inactive)	> 100 µM (inactive)	> 100 µM (inactive)	> 100 µM (inactive)	> 100 µM (inactive)		> 100 µM (inactive)	> 100 µM (inactive)			
C#CCNC(=O)NCCCC(NC(C)=O)C(=O)NCc1ccccc1 (stereo not drawn)	> 100 µM (inactive)	> 100 µM (inactive)	> 100 µM (inactive)	> 100 µM (inactive)	> 100 µM (inactive)	> 100 µM (inactive)		> 100 µM (inactive)	> 100 µM (inactive)	> 100 µM (inactive)	> 100 µM (inactive)	> 100 µM (inactive)	> 100 µM (inactive)	> 100 µM (inactive)	> 100	> 100 µM (inactive)	> 100 µM (inactive)			
CCCC(=O)Nc1ccc(O)c2c1C1CCCCCC21 (stereo not drawn)	63.1 µM (inactive)	> 100 µM (inactive)	56.9 µM (inactive)		> 100 µM (inactive)	96.4 µM (inactive)	> 100 µM (inactive)	50.2 µM (inactive)	> 100 µM (inactive)	> 100 µM (inactive)	> 100 µM (inactive)		> 100 µM (inactive)	> 100 µM (inactive)	74	> 100 µM (inactive)	39.1 µM (inactive)			
CC(C)(C)c1ccccc1N1C(=O)c2ccc3c4c(ccc(c24)C1=O)N(c1ccccc1C(C)(C)C)C3=O	> 100 µM (inactive)	> 100 µM (inactive)	5.46 µM (inactive)	> 100 µM (inactive)	> 100 µM (inactive)	> 100 µM (inactive)	> 100 µM (inactive)	71.3 µM (inactive)	> 100 µM (inactive)	> 100 µM (inactive)		> 100 µM (inactive)	> 100 µM (inactive)	> 100 µM (inactive)	> 100	> 100 µM (inactive)	> 100 µM (inactive)	> 100 µM (inactive)	> 100 µM (inactive)	> 100 µM (inactive)
N=C(N)N/N=C/c1c(-c2ccc([N+](=O)[O-])cc2)nc2n1CCS2	38 µM (inactive)	20.3 µM (inactive)	3.24 µM (inactive)	16.3 µM (inactive)	7 µM (inactive)	4.84 µM (inactive)	7.35 µM (inactive)	18 µM (inactive)	6.67 µM (inactive)	20.5 µM (inactive)		14.4 µM (inactive)	14.5 µM (inactive)	2.3 µM (inactive)	18.5	1.89 µM (inactive)	8.51 µM (inactive)	14.6 µM (inactive)	> 72.4 µM (inactive)	17.1 µM (inactive)
O=C(O)c1ccccc1CC1Cc2cc3c(cc2C1)CCC3	88.3 µM (inactive)	> 100 µM (inactive)	> 100 µM (inactive)	> 100 µM (inactive)	> 100 µM (inactive)	> 100 µM (inactive)	> 100 µM (inactive)	> 100 µM (inactive)	> 100 µM (inactive)	> 100 µM (inactive)		> 100 µM (inactive)	> 100 µM (inactive)	> 100 µM (inactive)	99.3	> 100 µM (inactive)	89.1 µM (inactive)	> 100 µM (inactive)	> 100 µM (inactive)	> 100 µM (inactive)
COC1CCC(OS(C)(=O)=O)C(C)O1 (stereo not drawn)	> 10 µM (inactive)	> 10 µM (inactive)	> 10 µM (inactive)	> 10 µM (inactive)	> 10 µM (inactive)	> 10 µM (inactive)	> 10 µM (inactive)	> 10 µM (inactive)	> 10 µM (inactive)	> 10 µM (inactive)		> 10 µM (inactive)	> 10 µM (inactive)	> 10 µM (inactive)	> 10	> 10 µM (inactive)	> 10 µM (inactive)	> 10 µM (inactive)	> 10 µM (inactive)	> 10 µM (inactive)
CC(C)(C)OC(=O)NC1CC2(C=C(Br)C(=O)C(Br)=C2)OC1=O (stereo not drawn)	0.968 µM (active)	17.3 µM (inactive)	0.401 µM (active)	18.7 µM (inactive)	7.33 µM (inactive)	20.9 µM (inactive)	16 µM (inactive)	16.4 µM (inactive)	2.72 µM (inactive)	18.7 µM (inactive)		18.3 µM (inactive)	5.74 µM (inactive)	17.4 µM (inactive)	7.13	0.165 µM (active)	3.58 µM (inactive)	13 µM (inactive)	14.8 µM (inactive)	16.5 µM (inactive)
COc1cc2ncnc(Nc3cccc(Cl)c3)c2cc1OC [TYRPHOSTIN AG-1478]	8.85 µM (inactive)	0.472 µM (active)	16.4 µM (inactive)	15.9 µM (inactive)	8.91 µM (inactive)	5.73 µM (inactive)	9.27 µM (inactive)	9.48 µM (inactive)	6.28 µM (inactive)	20.8 µM (inactive)		9.46 µM (inactive)	9.38 µM (inactive)	15.2 µM (inactive)	9.25	3.82 µM (inactive)	9.42 µM (inactive)	1.89 µM (inactive)	3.63 µM (inactive)	1.42 µM (inactive)
